Data reported in patent publication US11299488B2, “Five membered-aminoheterocycle and 5,6-or 6,6-membered bicyclic aminoheterocyclic inhibitors of rock for the treatment of heart failure” (BRISTOL-MYERS SQUIBB COMPANY, priority 2017, dated 2022).

What follows are molecules tested against ROCK2 (Homo sapiens (Human), UniProt O75116) (assay: ROCK assay (Caliper LABCHIP peptide phosphorylation, 5 μM ATP)).
Format: biochemical
Method: The effectiveness of compounds of the present invention as ROCK inhibitors can be determined in a 30 μL assay containing 20 mM HEPES, pH 7.5, 20 mM MgCl2, 0.015% Brij-35, 4 mM DTT, 5 μM ATP and 1.5 μM peptide substrate (FITC-AHA-AKRRRLSSLRA-OH) (SEQ ID No. 1). Compounds were dissolved in DMSO so that the final concentration of DMSO was <2%, and the reaction was initiated with Rho kinase variants. After incubation, the reaction was terminated by the addition of EDTA and the phosphorylated and non-phosphorylated peptides separated using a LABCHIP® 3000 Reader (Caliper Life Sciences). […] Compounds were tested in dose-response format, and the inhibition of kinase activity was calculated at each concentration of compound. The inhibition data were fit using a curve-fitting program to determine the IC50; i.e., the concentration of compound required to inhibit 50% of kinase activity. Representative Examples were tested in the ROCK assay described above and found having ROCK inhibitory activity. A range of ROCK inhibitory activity (IC50 values) of ≤50 μM (50000 nM) was observed. Table A below lists the ROCK IC50 values measured for the following examples.

ROCK2, sequence (O75116 whole entry, species assumed): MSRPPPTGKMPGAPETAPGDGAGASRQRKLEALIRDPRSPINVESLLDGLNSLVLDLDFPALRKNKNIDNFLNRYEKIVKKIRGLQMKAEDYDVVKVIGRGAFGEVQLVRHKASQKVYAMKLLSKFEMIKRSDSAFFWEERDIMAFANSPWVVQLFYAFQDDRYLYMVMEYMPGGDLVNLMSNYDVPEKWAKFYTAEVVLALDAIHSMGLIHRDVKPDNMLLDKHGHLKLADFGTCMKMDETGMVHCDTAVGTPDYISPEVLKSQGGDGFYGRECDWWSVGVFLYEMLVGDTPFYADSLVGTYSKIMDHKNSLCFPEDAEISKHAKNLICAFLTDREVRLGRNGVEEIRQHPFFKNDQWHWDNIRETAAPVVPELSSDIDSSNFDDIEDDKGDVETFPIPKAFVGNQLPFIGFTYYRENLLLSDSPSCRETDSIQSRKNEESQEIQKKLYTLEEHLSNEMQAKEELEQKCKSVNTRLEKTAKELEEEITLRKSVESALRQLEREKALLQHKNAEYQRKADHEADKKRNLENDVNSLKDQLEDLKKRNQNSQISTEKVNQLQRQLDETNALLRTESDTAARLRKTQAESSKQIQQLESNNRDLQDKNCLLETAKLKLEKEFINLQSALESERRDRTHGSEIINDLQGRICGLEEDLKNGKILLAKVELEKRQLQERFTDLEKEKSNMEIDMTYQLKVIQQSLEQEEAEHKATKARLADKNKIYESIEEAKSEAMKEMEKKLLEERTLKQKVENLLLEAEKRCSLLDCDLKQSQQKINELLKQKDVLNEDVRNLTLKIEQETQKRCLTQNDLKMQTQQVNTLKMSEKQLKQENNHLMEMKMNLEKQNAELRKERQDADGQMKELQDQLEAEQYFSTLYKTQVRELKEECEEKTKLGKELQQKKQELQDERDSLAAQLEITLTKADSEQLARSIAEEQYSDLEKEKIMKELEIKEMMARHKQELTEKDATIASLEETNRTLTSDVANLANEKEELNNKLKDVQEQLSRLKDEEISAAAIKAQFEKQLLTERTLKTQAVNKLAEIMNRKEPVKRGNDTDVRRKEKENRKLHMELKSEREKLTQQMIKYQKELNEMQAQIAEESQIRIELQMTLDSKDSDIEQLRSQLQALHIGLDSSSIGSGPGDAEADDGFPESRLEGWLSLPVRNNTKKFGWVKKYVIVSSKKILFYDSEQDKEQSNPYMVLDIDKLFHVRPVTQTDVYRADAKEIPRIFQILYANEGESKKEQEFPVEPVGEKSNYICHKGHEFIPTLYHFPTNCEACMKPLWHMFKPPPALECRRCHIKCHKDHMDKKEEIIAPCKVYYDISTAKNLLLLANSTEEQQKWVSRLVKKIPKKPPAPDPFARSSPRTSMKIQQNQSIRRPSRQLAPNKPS

| SMILES | IC50 [nM] |
| --- | --- |
| [H][C@]1(Oc2ncccc2C(N)=O)C[C@]2(C[C@@H](Nc3nccc(N4CCCC(F)C4)n3)C2)C1 (stereo partly drawn) [Example 41, 2-(((2S,4s,6S)-6-((4-(3-fluoro-piperidin-1-yl)pyrimidin-2-yl)amino)spiro [3.3]heptan-2-yl)oxy) nicotinamide] | 496 |
| [H][C@]1(Oc2ncccc2C(N)=O)C[C@@]2(C[C@H](Nc3nccc(N4CC[C@H](F)C4)n3)C2)C1 (stereo partly drawn) [Example 42, 2-(((2S,4r,6S)-6-((4-((S)-3-fluoro-pyrrolidin-1-yl)pyrimidin-2-yl)amino)spiro [3.3]heptan-2-yl)oxy) nicotinamide] | 2030 |
| [H][C@]1(Oc2ncccc2C(N)=O)C[C@]2(C[C@@H](Nc3nccc(N4CCC(C(F)(F)F)CC4)n3)C2)C1 (stereo partly drawn) [Example 43, 2-(((2S,4s,6S)-6-((4-(4-(trifluoro-methyl)piperidin-1-yl)pyrimidin-2-yl)amino)spiro[3.3]heptan-2-yl)oxy) nicotinainide] | 165 |
| [H][C@]1(Oc2ncccc2C(N)=O)C[C@]2(C[C@@H](Nc3nccc(-c4ccc(F)cc4)n3)C2)C1 (stereo partly drawn) [Example 47, 2-(((2S,4s,6S)-6-((4-(4-fluorophenyl)pyrimidin-2-yl)amino)spiro[3.3]heptan-2-yl)oxy) nicotinamide] | 211 |
| [H][C@]1(Oc2ncccc2C(N)=O)C[C@]2(C[C@@H](Nc3nccc(-c4ccc(C#N)cc4)n3)C2)C1 (stereo partly drawn) [Example 48, 2-(((2S,4s,6S)-6-((4-(4-cyanophenyl)pyrimidin-2-yl)amino)spiro[3.3]heptan-2-yl)oxy) nicotinamide] | 204 |
| [H][C@]1(Oc2ncccc2C(N)=O)C[C@]2(C[C@@H](Nc3nccc(-c4cccc(F)c4)n3)C2)C1 (stereo partly drawn) [Example 49, 2-(((2S,4s,6S)-6-((4-(3-fluorophenyl)pyrimidin-2-yl)amino)spiro[3.3]heptan-2-yl)oxy) nicotinamide] | 149 |
| [H][C@]1(Oc2ncccc2C(N)=O)C[C@]2(C[C@@H](Nc3nccc(-c4cccc(C#N)c4)n3)C2)C1 (stereo partly drawn) [Example 52, 2-(((2S,4s,6S)-6-((4-(3-cyanophenyl)pyrimidin-2-yl)amino)spiro[3.3]heptan-2-yl)oxy) nicotinamide] | 87 |
| [H][C@]1(Oc2ncccc2C(N)=O)C[C@]2(C[C@@H](Nc3nccc(-c4cccc(C(=O)N(C)C)c4)n3)C2)C1 (stereo partly drawn) [Example 53, 2-(((2S,4s,6S)-6-((4-(3-(dimethyl-carbamoyl)phenyl)pyrimidin-2-yl)amino)spiro[3.3]heptan-2-yl)oxy) nicotinamide] | 284 |

Second part, the molecule after the results:

| IC50 [nM] | SMILES |
| --- | --- |
| 489 | [H][C@]1(Oc2ncccc2C(N)=O)C[C@]2(C[C@@H](Nc3nccc(NC4CCC(F)(F)CC4)n3)C2)C1 (stereo partly drawn) [Example 44, 2-(((2S,4s,6S)-6-((4-((4,4-difluoro-cyclohexyl)amino)pyrimidin-2-yl)amino)spiro[3.3]heptan-2-yl)oxy) nicotinamide] |
| 678 | [H][C@]1(Oc2ncccc2C(N)=O)C[C@]2(C[C@@H](Nc3nccc(NCC(C)(C)CO)n3)C2)C1 (stereo partly drawn) [Example 45, 2-(((2S,4s,6S)-6-((4-((3-hydroxy-2,2-dimethyl-propyl)amino)pyrimidin-2-yl)amino)spiro[3.3]heptan-2-yl)oxy) nicotinamide] |
| 557 | [H][C@]1(Oc2ncccc2C(N)=O)C[C@]2(C[C@@H](Nc3nccc(-c4ccncc4)n3)C2)C1 (stereo partly drawn) [Example 46, 2-(((2S,4s,6S)-6-((4-(pyridin-4-yl)pyrimidin-2-yl)amino)spiro[3.3]heptan-2-yl)oxy)nicotinamide] |
| 1100 | [H][C@]1(Oc2ncccc2C(N)=O)C[C@]2(C[C@@H](Nc3nccc(-c4ccc(C(=O)N(C)C)cc4)n3)C2)C1 (stereo partly drawn) [Example 50, 2-(((2S,4s,6S)-6-((4-(4-(dimethyl-carbamoyl)phenyl)pyrimidin-2-yl)amino)spiro[3.3]heptan-2-yl)oxy) nicotinamide] |
| 414 | [H][C@]1(Oc2ncccc2C(N)=O)C[C@]2(C[C@@H](Nc3nccc(-c4cccnc4)n3)C2)C1 (stereo partly drawn) [Example 51, 2-(((2S,4s,6S)-6-((4-(pyridin-3-yl)pyrimidin-2-yl)amino)spiro[3.3]heptan-2-yl)oxy) nicotinamide] |
